Numbers after ± are expanded uncertainties.
Key:
[1] = Liquid; for mass density: 298.15 K, 101.33 kPa, Vibrating tube method; for Normal boiling temperature: Ebulliometric method (Recirculating still)
[2] = refractive index (Na D-line) (dimensionless); details: 298.15 K; 101.3 kPa; Liquid; Standard Abbe refractometry

| Structure (SMILES) | mass density [1] | Normal boiling temperature [1] | refractive index [2] |
| --- | --- | --- | --- |
| COCC(C)O (stereo not given) [1-methoxy-2-propanol] | 916.5 ± 0.2 kg/m3 | 120.2 ± 1 °C | 1.4024 ± 0.0007 |
| COCC(C)OC(C)=O (stereo not given) [1-methoxy-2-propyl acetate] | 963 ± 0.2 kg/m3 | 146 ± 1 °C | 1.4 ± 0.0007 |
| CO [methanol] | 786.9 ± 0.2 kg/m3 | 64.6 ± 1 °C | 1.3269 ± 0.0007 |
| COC(C)=O [methyl ethanoate] | 927.5 ± 0.2 kg/m3 | 57.2 ± 1 °C | 1.3596 ± 0.0007 |
| CC(C)O [propan-2-ol] | 781.4 ± 0.2 kg/m3 | 82.5 ± 1 °C | 1.375 ± 0.0007 |
